ChEMBL document CHEMBL1649487, “Molecular characteristics of travel-related extended-spectrum-beta-lactamase-producing Escherichia coli isolates from the Calgary Health Region” (2009)

Columns and labels:
Type in all cases: functional
Escherichia coli [1] = assay: Antimicrobial activity against Extended-spectrum beta-lactamase producing Escherichia coli clinical isolate assessed as resistant isolate
Escherichia coli [2] = assay: Antimicrobial activity against Extended-spectrum beta-lactamase producing Escherichia coli clinical isolate assessed as resistant isolate in presence of beta-lactamase inhibitor clavulanic acid
Escherichia coli [3] = assay: Antimicrobial activity against Extended-spectrum beta-lactamase producing Escherichia coli clinical isolate assessed as resistant isolate in presence of beta-lactamase inhibitor Tazobactam

Compound	Activity (Escherichia coli [1])	further results
NCC[C@H](O)C(=O)N[C@@H]1C[C@H](N)[C@@H](O[C@H]2O[C@H](CN)[C@@H](O)[C@H](O)[C@H]2O)[C@H](O)[C@H]1O[C@H]1O[C@H](CO)[C@@H](O)[C@H](N)[C@H]1O [AMIKACIN]	1%	–
CC1(C)S[C@@H]2[C@H](NC(=O)[C@H](N)c3ccc(O)cc3)C(=O)N2[C@H]1C(=O)O [AMOXICILLIN]	–	Activity (Escherichia coli [2]): 74%
O=C1CN(/N=C/c2ccc([N+](=O)[O-])o2)C(=O)N1 [NITROFURANTOIN]	7%	–
CCN1CCN(C(=O)N[C@@H](C(=O)N[C@@H]2C(=O)N3[C@@H]2SC(C)(C)[C@@H]3C(=O)O)c2ccccc2)C(=O)C1=O [PIPERACILLIN]	–	Activity (Escherichia coli [3]): 47%
NC[C@H]1O[C@H](O[C@H]2[C@H](O)[C@@H](O[C@H]3O[C@H](CO)[C@@H](O)[C@H](N)[C@H]3O)[C@H](N)C[C@@H]2N)[C@H](N)C[C@@H]1O [TOBRAMYCIN]	50%	–
GENTAMICIN	42%	–
